Key:
[1] = tested on: Glomerella lagenarium (Colletotrichum lagenarium); assay: Glomerella lagenarium (Colletotrichum lagenarium) / liquid culture (anthracnose); type: cell-based; conditions: Colletotrichum orbiculare, PDB potato dextrose broth, 24° C., 3-4 days after application, read-out: disease control (inhibition of growth measured photometrically)
In short: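 Compound was applied at 200 ppm from DMSO solution, then potato dextrose broth carrying cryostored fungal spores was added. Growth inhibition was measured by photometry after 3-4 days of incubation at 24° C.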

[2] = tested on: Botryotinia fuckeliana (Botrytis cinerea); assay: Botryotinia fuckeliana (Botrytis cinerea) / liquid culture (gray mould); type: cell-based; conditions: Vogels broth, 24° C., 3-4 days after application, read-out: disease control (inhibition of growth determined photometrically)
Description: 10. Botryotinia fuckeliana (Botrytis cinerea)/Liquid Culture (Gray Mould): Conidia of the fungus from cryogenic storage were directly mixed into nutrient broth (Vogels broth). After placing a DMSO solution of test compound into a 96-well microtiter plate at an application rate of 200 ppm, the nutrient broth containing the fungal spores was added. The test plates were incubated at 24° C. and the inhibition of growth was determined photometrically 3-4 days after application.

[3] = tested on: Mycosphaerella arachidis (Cercospora arachidicola); assay: Mycosphaerella arachidis (Cercospora arachidicola) / liquid culture (early leaf spot); type: cell-based; conditions: PDB potato dextrose broth, 24° C., 4-5 days after application, read-out: disease control (inhibition of growth determined photometrically)
In short: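 Test compound, applied at 200 ppm from DMSO solution, was combined with spore-containing potato dextrose broth. Photometric growth inhibition was scored after 4-5 days at 24° C.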

Pythium ultimum = Pythium ultimum / liquid culture (seedling damping off); type: cell-based; conditions: Globisporangium ultimum; 200 ppm; potato dextrose broth, 24° C., 2-3 days after application; read-out: disease control (inhibition of growth determined photometrically)
[4] = tested on: Monographella nivalis (Microdochium nivale); assay: Monographella nivalis (Microdochium nivale) / liquid culture (foot rot cereals); type: cell-based; conditions: PDB potato dextrose broth, 24° C., 4-5 days after application, read-out: disease control (inhibition of growth determined photometrically)
[5] = tested on: Mycosphaerella graminicola (Septoria tritici); assay: Mycosphaerella graminicola (Septoria tritici) / liquid culture (Septoria blotch); type: cell-based; conditions: Zymoseptoria tritici, PDB potato dextrose broth, 24° C., 4-5 days after application, read-out: disease control (inhibition of growth determined photometrically)
In short: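 Growth inhibition was read photometrically 4-5 days after application, following incubation at 24° C of fungal conidia in potato dextrose broth over test compound (200 ppm, from DMSO solution) in microtiter plates.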

[6] = tested on: Puccinia recondita f. sp. tritici; assay: Puccinia recondita f. sp. tritici / wheat / leaf disc preventative (brown rust); type: in vivo; conditions: foliar, wheat leaf segments cv Kanzler, inoculated 1 day after application, assessed 7-9 days after application, read-out: disease control
Source text: 3. Puccinia recondita f. sp. tritici/Wheat/Leaf Disc Preventative (Brown Rust): Wheat leaf segments cultivated variety (cv) Kanzler were placed on agar in 24-well plates and sprayed with formulated test compound diluted in water at an application rate of 200 ppm. The leaf disks were inoculated with a spore suspension of the fungus 1 day after application.

Gaeumannomyces graminis = Gaeumannomyces graminis / liquid culture (take-all of cereals); type: cell-based; conditions: PDB potato dextrose broth, 24° C., 4-5 days after application, read-out: disease control (inhibition of growth determined photometrically)
In short: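 Growth inhibition measured photometrically 4–5 days post-application, following incubation at 24 °C. Test compound, applied from DMSO at 200 ppm, mixed with fungal mycelial fragments in potato dextrose broth.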

[7] = tested on: Thanatephorus cucumeris (Rhizoctonia solani); assay: Thanatephorus cucumeris (Rhizoctonia solani) / liquid culture (foot rot, damping-off); type: cell-based; conditions: PDB potato dextrose broth, 24° C., 3-4 days after application, read-out: disease control (inhibition of growth determined photometrically)
In short: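 Photometric growth-inhibition readout taken 3-4 days after application, with cultures incubated at 24 °C. Test compound was applied at 200 ppm from DMSO solution to R. solani mycelial fragments in PDB.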

Plasmopara viticola = assay: whole plant or invertebrate; type: in vivo; conditions: foliar, read-out: disease control
Fusarium culmorum = assay: microbe, parasite or virus in culture; type: cell-based; conditions: read-out: disease control (inhibition of growth determined visually)
Sclerotinia sclerotiorum = Sclerotinia sclerotiorum / liquid culture (cottony rot); type: cell-based; conditions: PDB potato dextrose broth, 24° C., 3-4 days after application, read-out: disease control (inhibition of growth determined visually)
Description: 18. Sclerotinia sclerotiorum/Liquid Culture (Cottony Rot): Mycelia fragments of a newly grown liquid culture of the fungus were directly mixed into nutrient broth (PDB potato dextrose broth). After placing a (DMSO) solution of the test compounds into a microtiter plate (96-well format) the nutrient broth containing the fungal material was added. The test plates were incubated at 24° C. and the inhibition of growth was determined visually 3-4 days after application.

Phytophthora infestans = assay: whole plant or invertebrate; type: in vivo; conditions: in Solanum lycopersicum, foliar, read-out: disease control

SMILES	inhibition at 200 ppm [1]	inhibition at 200 ppm [2]	inhibition at 200 ppm [3]	inhibition at 200 ppm (Pythium ultimum)	melting point	inhibition at 200 ppm [4]	inhibition at 200 ppm [5]	pest or weed control at 200 ppm [6]	inhibition at 200 ppm (Gaeumannomyces graminis)	inhibition at 200 ppm [7]	pest or weed control at 200 ppm (Plasmopara viticola)	inhibition at 200 ppm (Fusarium culmorum)	inhibition at 200 ppm (Sclerotinia sclerotiorum)	pest or weed control at 200 ppm (Phytophthora infestans)
O=C(OCC1CCC1)c1cc2c(cc1Cl)COB2O [Compound 225]	≥ 80%	≥ 80%	≥ 80%	≥ 80%	115 to 117 °C	≥ 80%	≥ 80%	≥ 80%	≥ 80%	≥ 80%	–	–	–	–
COC(=O)C(OC(=O)c1ccc2c(c1)B(O)OC2)c1ccccc1 (stereo not shown) [Compound 349]	≥ 80%	–	–	≥ 80%	–	≥ 80%	–	≥ 80%	≥ 80%	–	≥ 80%	–	–	–
O=C(OCCc1c(Cl)cccc1Cl)c1ccc2c(c1)B(O)OC2 [Compound 373]	–	≥ 80%	–	–	–	≥ 80%	≥ 80%	–	≥ 80%	–	≥ 80%	≥ 80%	–	–
CCCCCCCCCCOC(=O)c1cc2c(cc1F)COB2O [Compound 391]	–	–	≥ 80%	≥ 80%	–	–	–	≥ 80%	≥ 80%	≥ 80%	–	–	–	–
C=CCOC(=O)c1cc2c(cc1Cl)COB2O [Compound 215]	≥ 80%	–	≥ 80%	≥ 80%	–	≥ 80%	≥ 80%	–	≥ 80%	≥ 80%	–	≥ 80%	≥ 80%	–
C[Si](C)(C)/C=C/COC(=O)c1cc2c(cc1Cl)COB2O [Compound 216]	–	≥ 80%	≥ 80%	–	–	≥ 80%	≥ 80%	–	≥ 80%	–	–	–	–	–
CC#CCOC(=O)c1ccc2c(c1)B(O)OC2 [Compound 323]	–	≥ 80%	≥ 80%	≥ 80%	154 to 155 °C	≥ 80%	≥ 80%	–	≥ 80%	≥ 80%	≥ 80%	≥ 80%	–	≥ 80%
O=C(OCc1ccsc1)c1ccc2c(c1)B(O)OC2 [Compound 50]	≥ 80%	–	≥ 80%	≥ 80%	130 to 132 °C	≥ 80%	≥ 80%	≥ 80%	≥ 80%	≥ 80%	≥ 80%	≥ 80%	–	–
O=C(OCc1cccc(F)c1)c1cc2c(cc1F)COB2O [Compound 434]	≥ 80%	≥ 80%	≥ 80%	≥ 80%	–	≥ 80%	≥ 80%	–	≥ 80%	≥ 80%	≥ 80%	–	–	–
CCCCCCCOC(=O)c1ccc2c(c1)B(O)OC2 [Compound 317]	≥ 80%	≥ 80%	≥ 80%	≥ 80%	–	≥ 80%	≥ 80%	≥ 80%	≥ 80%	≥ 80%	≥ 80%	–	–	–
Cc1ccc(-c2csc(NC(=O)c3cc4c(cc3F)COB4O)n2)cc1 [Compound 188]	–	–	–	–	–	≥ 80%	–	≥ 80%	–	–	≥ 80%	–	–	–
C[Si](C)(C)CCCOC(=O)c1cc2c(cc1Cl)COB2O [Compound 194]	≥ 80%	≥ 80%	≥ 80%	–	–	≥ 80%	≥ 80%	–	≥ 80%	–	–	–	–	–
